The source of these data is paper PMC12508949, “Evaluation of the Pharmacokinetic Interactions of Maytenus ilicifolia Mart. ex Reiss Extracts on Drug Intestinal Permeability and Hepatic Metabolism” (ACS Omega, 2025).

The subject of one data set is CYP3A enzyme. Also on record: method as in previous studies. Particulars: ref previous studies; cited from earlier work.
Data set [1] deals with CYP3A4 (Homo sapiens, UniProt P08684). Briefly: CYP3A4 inhibition in human liver microsomes (midazolam 1-hydroxylation, nifedipine oxidation). The settings on record: extracts 2 mg/mL, secondary metabolites 100 μM. For orientation: Liver microsomes are a subcellular fraction often used to study metabolism.
CYP3A4 (Homo sapiens, UniProt P08684), sequence (P08684 whole entry): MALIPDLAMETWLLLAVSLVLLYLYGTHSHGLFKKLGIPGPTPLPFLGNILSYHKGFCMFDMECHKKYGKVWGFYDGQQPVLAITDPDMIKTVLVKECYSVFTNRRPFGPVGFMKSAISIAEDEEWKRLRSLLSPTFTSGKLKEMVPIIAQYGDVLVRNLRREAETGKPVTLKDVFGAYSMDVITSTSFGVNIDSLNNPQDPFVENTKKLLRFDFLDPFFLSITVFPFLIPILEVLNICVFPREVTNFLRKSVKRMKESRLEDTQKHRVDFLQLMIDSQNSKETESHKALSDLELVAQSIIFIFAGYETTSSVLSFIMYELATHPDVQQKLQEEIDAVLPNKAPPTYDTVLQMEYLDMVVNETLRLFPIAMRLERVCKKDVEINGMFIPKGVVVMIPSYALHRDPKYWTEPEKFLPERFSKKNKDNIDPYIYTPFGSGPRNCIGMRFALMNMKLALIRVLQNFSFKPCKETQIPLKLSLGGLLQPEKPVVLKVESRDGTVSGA
The target of data set [2] is T1, P-gp (Homo sapiens, UniProt P08183). The settings on record: Caco-2; epicatechin 100 μM; reduced P app(B–A) and efflux of fexofenadine.
T1 sequence (P08183 whole entry): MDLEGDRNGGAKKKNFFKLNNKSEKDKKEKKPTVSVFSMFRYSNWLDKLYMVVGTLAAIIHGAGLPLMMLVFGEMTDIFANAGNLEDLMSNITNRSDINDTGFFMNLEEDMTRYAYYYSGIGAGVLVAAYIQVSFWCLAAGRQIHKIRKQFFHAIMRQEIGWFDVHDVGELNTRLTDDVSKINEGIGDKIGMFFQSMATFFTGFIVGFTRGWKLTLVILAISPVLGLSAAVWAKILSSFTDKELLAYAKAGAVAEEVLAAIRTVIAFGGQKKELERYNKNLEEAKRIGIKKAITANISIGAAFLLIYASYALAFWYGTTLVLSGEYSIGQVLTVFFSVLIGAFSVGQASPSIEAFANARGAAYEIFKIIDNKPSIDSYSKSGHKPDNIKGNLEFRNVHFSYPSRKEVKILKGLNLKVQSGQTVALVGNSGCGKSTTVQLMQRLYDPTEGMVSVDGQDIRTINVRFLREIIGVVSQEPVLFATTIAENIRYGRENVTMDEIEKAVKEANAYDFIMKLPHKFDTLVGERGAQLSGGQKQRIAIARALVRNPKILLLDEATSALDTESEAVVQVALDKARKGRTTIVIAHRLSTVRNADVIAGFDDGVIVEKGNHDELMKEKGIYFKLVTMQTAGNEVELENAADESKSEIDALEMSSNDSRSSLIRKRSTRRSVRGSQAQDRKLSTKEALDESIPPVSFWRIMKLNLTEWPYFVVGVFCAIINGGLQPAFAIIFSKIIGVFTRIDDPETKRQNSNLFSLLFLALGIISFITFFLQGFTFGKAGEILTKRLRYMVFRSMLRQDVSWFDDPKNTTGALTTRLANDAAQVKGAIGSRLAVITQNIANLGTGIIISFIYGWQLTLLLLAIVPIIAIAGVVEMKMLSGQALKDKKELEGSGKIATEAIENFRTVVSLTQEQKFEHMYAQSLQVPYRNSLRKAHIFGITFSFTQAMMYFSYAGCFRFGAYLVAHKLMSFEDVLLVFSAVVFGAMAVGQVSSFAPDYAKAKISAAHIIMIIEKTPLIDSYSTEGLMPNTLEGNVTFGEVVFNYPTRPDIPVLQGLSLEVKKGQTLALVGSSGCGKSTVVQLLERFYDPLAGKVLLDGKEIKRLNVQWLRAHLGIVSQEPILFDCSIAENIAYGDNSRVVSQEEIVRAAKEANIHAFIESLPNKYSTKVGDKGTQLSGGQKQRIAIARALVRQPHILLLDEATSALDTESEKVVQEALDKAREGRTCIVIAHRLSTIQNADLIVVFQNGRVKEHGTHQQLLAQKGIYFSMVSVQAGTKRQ
Data set [3] concerns the target T1, P-gp. Also on record: determining P-gp activity, using a Caco-2 cell model; host or cells: Caco-2 cells; method as in Kitagawa et al. The settings on record: KB-C2 cells; ref Kitagawa et al.; cited from earlier work.
The subject of data set [4] is CYP3A4. Also noted: method as in Kimura et al. The settings on record: ref Kimura et al., cited from earlier work; for inhibition of 6β-hydroxylation of testosterone: concentration of 100 μM; for pIC50: read-out: IC50, 6β-hydroxylation of testosterone.

Molecules are shown by their SMILES. pIC50: −log10 of the molar value.

On to `O.Oc1cc(O)c2c(c1)O[C@H](c1ccc(O)c(O)c1)[C@@H](O)C2` [catechin], for which the “inhibitory activity on the CYP3A enzyme, testosterone 6β-hydroxylation” value with CYP3A enzyme is reported as “higher than 50%”. Besides, on CYP3A4 [1], the “remaining activity (%RA) of CYP3A4, substrate reaction not specified” value is on record as “higher than 50%”.

On to `Oc1cc(O)c2c(c1)O[C@H](c1ccc(O)c(O)c1)[C@H](O)C2` [epicatechin], for which the “P-gp inhibitory potential (in words)” value on P-gp [2] was “slight inhibitory potential”. Also, the “inhibitory activity on the CYP3A enzyme, testosterone 6β-hydroxylation” value with CYP3A enzyme was 50%. The “effect on P-gp activity (in words)” value at P-gp [3] was “did not observe any effect”.

In the case of `O=c1c(O)c(-c2ccc(O)cc2)oc2cc(O)cc(O)c12` [kaempferol], in the data set with CYP3A4 [4], the “inhibition of 6β-hydroxylation of testosterone” value is on record as 100% and the pIC50 (usually −log10 of the IC50, conventionally taken in molar units) was 5.06.

As to `O=c1c(O)c(-c2ccc(O)c(O)c2)oc2cc(O)cc(O)c12` [quercetin], in the data set on CYP3A4 [4], the “inhibition of 6β-hydroxylation of testosterone” value is recorded as […] and the pIC50 was […]. On CYP3A4 [1] (negative control = 100%), the “remaining activity (%RA), midazolam 1-hydroxylation” value was “markedly inhibited” and the “remaining activity (%RA), nifedipine oxidation” value was “markedly inhibited”.
